Test results from US20260184759A1, “CHIMERIC ANTIGEN RECEPTORS SPECIFIC FOR CONJUGATED BIOTIN” (Seattle Children's Hospital (dba Seattle Children's …, priority 2022, published 2026).

Assays:
[1] = tested on: anti-conjugated biotin CARs; assay: Competition assay against biotin-PEG-Cy5 binding (flow cytometry); parameters: species or system human; details: 440 nM biotin-PEG-Cy5 with 0.2, 1, 5 or 20 nM competitor, 30 minutes, room temperature
Method: First, cells expressing various CARs were incubated with 440 nM of biotin-PEG-Cy5 (FIG. 6) for 30 minutes at room temperature. Concurrently, they were exposed to 0 nM (no competition), 0.2 nM, 1 nM, 5 nM, or 20 nM of either unconjugated biotin or a non-fluorescent conjugated biotin (FIG. 7A).
One differentiating factor for this CAR when compared with other biotin-binding receptors previously described^28,29,31 is that the CAR may bind any biotin derivative but not the unmodified molecule itself (FIG. 2B). To confirm this selective binding to biotin conjugates, the panel of CAR T cells was incubated with 440 nM of a biotin-PEG-Cy5 conjugate, and titrated doses (20 nM, 5 nM, 1 nM, and 0.2 nM) of competition were incubated concurrently with the soluble antigen. Competition included another conjugated biotin, biotin-PEG2k-folate (FIG. 7A), and unmodified biotin (FIG. 7B).
To confirm anti-biotin CAR T cell binding to conjugated biotin, 440 nM of a 1.1 kDa biotin-PEG-Cy5 (Click Chemistry Tools) conjugate was incubated with the cells for 30 min at room temperature. For the competition assay, 0.2 nM, 1 nM, 5 nM, or 20 nM of either 2 kDa biotin-folate (NanoCS) or unconjugated biotin (Sigma-Adrich) were incubated concurrently with the cells and biotin-PEG-Cy5. Cells were washed and fixed in a 0.5% paraformaldehyde solution. […]

[2] = tested on: anti-conjugated biotin CAR T cells; assay: ICCS assay with unconjugated biotin added to the co-incubation; type: cell-based, human; details: 0 ng, 100 ng, 500 ng, 2 ug unconjugated biotin during 4-hour co-incubation with labelled targets
Method: Additionally, unconjugated biotin was added to co-incubating cells for the entire 4-hour co-incubation to determine whether unconjugated biotin can block anti-conjugated biotin binding to target cells. Unconjugated biotin was added at 4 different doses: 0 ng (no competition), 100 ng, 500 ng, and 2 ug. […] The cells were then assessed for production of the intracellular cytokines IFN, IL2, and TNF.
Cytokine expression and activation/exhaustion markers of anti-biotin CAR T cells stimulated with targets cells were examined by ICCS. Target cells were labeled with appropriate intermediate adaptors and washed. T cells were then co-incubated with labeled and unlabeled target cells at an E:T ratio of 1:1 for 4 hours in the presence of Protein Transport Inhibitor (ThermoFisher Scientific) to block cytokine secretion. Cells were incubated in the appropriate medium for each target line. 100× Cell Stimulation Cocktail (ThermoFisher Scientific) was used as a positive control. An anti-CD107a BV711 antibody (BioLegend) was also included with the cells during the incubation. Cells were then labeled for dead cells using FVS520 live/dead stain (BD Horizon), washed, and subsequently FcR Blocked (Miltenyi Biotec). Surface markers were then stained using anti-CD4 PacBlue(BioLegend), anti-CD8 PerCP/Cy5.5 (Biolegend), and erbitux-APC (BD Biosciences). […]

O=C(O)CCCC[C@@H]1SC[C@@H]2NC(=O)N[C@@H]21 [unconjugated biotin, biotin]
MFI of biotin-PEG-Cy5 binding under competition [1]: not negatively impacted in their ability to bind biotin conjugated to fluorescent Cy5
MFI of biotin-PEG-Cy5 binding under competition ([1]; listed as unmodified biotin): no decrease in MFI
impact of unconjugated biotin on activation markers (CD8+ CAR T cells) [2]: no impact on the activation profiles of the CAR T cells
impact of unconjugated biotin on intracellular cytokines (CD4+ CAR T cells) [2]: no impact on the activation profiles of the CAR T cells
